Experimental data published in patent publication US20090227648A1, “PYRAZOLE DERIVATIVES USEFUL FOR THE TREATMENT OF CANCER” (AstraZeneca AB, priority 2004, published 2009).

Each compound was assayed against T1, human Trk A kinase (Homo sapiens, UniProt P04629) (assay: Trk A kinase Alphascreen assay). Conditions: intracellular domain of HIS-tagged human Trk A (aa 442-796), 70 μM ATP, 20 minutes, room temperature; read-out: Trk A inhibitory activity IC50.
T1 construct: HIS; made in house; host or cells: SF9 insect cells
T1 sequence (P04629 442-796): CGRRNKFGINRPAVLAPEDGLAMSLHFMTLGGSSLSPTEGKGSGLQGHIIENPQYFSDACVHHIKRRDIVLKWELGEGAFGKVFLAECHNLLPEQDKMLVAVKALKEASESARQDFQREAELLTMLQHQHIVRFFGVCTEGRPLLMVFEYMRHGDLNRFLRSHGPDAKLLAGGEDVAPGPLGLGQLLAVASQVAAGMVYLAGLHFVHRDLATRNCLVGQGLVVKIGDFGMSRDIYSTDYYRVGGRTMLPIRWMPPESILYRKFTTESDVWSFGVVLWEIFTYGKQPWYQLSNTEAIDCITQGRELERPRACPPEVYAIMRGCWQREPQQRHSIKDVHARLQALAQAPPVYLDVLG
Format: biochemical
Method: Trk A kinase activity was measured for its ability to phosphorylate synthetic tyrosine residues within a generic polypeptide substrate using an Amplified Luminescent Proximity Assay (Alphascreen) technology (PerkinEilmer, 549 Albany Street, Boston, Mass.).
To measure Trk A kinase activity, the intracellular domain of a HIS-tagged human Trk A kinase (amino acids 442-796 of Trk A, Swiss-Prot Primary Accession Number P04629) was expressed in SF9 cells and purified using standard nickel column chromatography. After incubation of the kinase with a biotinylated substrate and adenosine triphosphate (ATP) for 20 minutes at room temperature, the kinase reaction was stopped by the addition of 30 mM ethylenediaminetetraacetic acid (EDTA). The reaction was performed in 384 well microtitre plates and the reaction products were detected with the addition of strepavidin coated Donor Beads and phosphotyrosine-specific antibodies coated Acceptor Beads using the EnVision Multilabel Plate Reader after an overnight incubation at room temperature.

IC50	SMILES
859 nM	N#Cc1cc([N+](=O)[O-])c(Nc2cc(C3CC3)[nH]n2)cc1N[C@@H](CO)c1ccc(F)cc1 [Example 10, (R)-4-(5-Cyclopropyl-1H-pyrazol-3-ylamino)-2-(1-(4-fluorophenyl)-2-hydroxyethylamino)-5-nitrobenzonitrile]
1240 nM	C[C@H](Nc1cc(NCCO)c([N+](=O)[O-])c(Nc2cc(C3CC3)[nH]n2)c1)c1ccc(F)cc1 [Example 17, (S)-2-(3-(5-Cyclopropyl-1H-pyrazol-3-ylamino)-5-(1-(4-fluorophenyl)ethylamino)-2-nitrophenylamino)ethanol]
426 nM	C[C@H](Nc1cc(Nc2cc(C3CC3)[nH]n2)c([N+](=O)[O-])cc1F)c1ccc(F)cc1 [Example 13, (S)—N^1-(5-Cyclopropyl-1H-pyrazol-3-yl)-4-fluoro-N^3-(1-(4-fluorophenyl)ethyl)-6-nitrobenzene-1,3-diamine]
